Source: patent US12076304B2, “Compositions comprising 15-HEPE and methods of treating or preventing hematologic disorders, and/or related diseases” (priority 2020, dated 2024)
Entries after “also recorded” stand apart in the source; their conditions may differ.

Experiments:
[1] = system: cholestasis induced by BDL; assay: BDL mice: Sirius red staining of liver sections, fibrosis area; assay type: in vivo; conditions: for Sirius red-positive area: BDL mice liver, Day 14, mean ± SD, n = 8; for fibrosis area compared with the Vehicle group: BDL mice
Method: […]: To visualize collagen deposition, Bouin's fixed liver sections were stained using picro-Sirius red solution (Waldeck, Germany). For quantitative analysis of fibrosis area, bright field images of Sirius red-stained sections were captured using a digital camera (DFC295; Leica, Germany) at 100-fold magnification, and the positive areas in 5 fields/section were measured using ImageJ software (National Institute of Health, USA).

[2] = system: NAFLD patients; assay: Phase IIa study in NAFLD patients: panel of protein biomarkers (proteomics); assay type: in vivo, human
Source text: (§1) The study was planned to include 96 evaluable patients with 32 patients randomized per treatment group.

[3] = system: NAFLD patients; assay: Phase IIa study in NAFLD patients: ALP and liver fibrosis markers; assay type: in vivo, human; conditions: 2 g
Method: as §1
Clinical Laboratory Safety Tests: Safety tests were performed for hematology, serum biochemistry, coagulation, lipid profile, and urinalysis: Blood and urine samples were taken as per the Study Flow Chart in Table 19 for routine hematology, serum biochemistry, coagulation and urinalysis tests, along with a Lipid Profile. All samples were analyzed in the central laboratory. All subjects were fasted for a minimum of 8 hours prior to blood sampling. […]

[4] = system: NAFLD patients; assay: Phase IIa study in NAFLD patients: metabolic and glycemic parameters; assay type: in vivo, human
Method: as §1
HOMA-IR/Adipo-IR: HOMA-IR/Adipo-IR levels are a method of measuring insulin resistance. HOMA-IR is calculated by multiplying fasting plasma insulin (FPI) by fasting plasma glucose (FPG), then dividing by the constant 405. Adipo-IR is calculated by multiplying fasting non-esterified fatty acids (NEFA)×fasting insulin. Blood samples were taken to assess HOMA-IR and Adipo-IR at Visit 2/Baseline, Visit 3/Week 2, Visit 4/Week 4, Visit 6/Week 8, Visit 8/Week 12, Visit 10/Week16 and Follow up Visit 11/Week 20. All subjects were required to have been fasted for a minimum of 8 hours prior to blood sampling. If subjects had not fasted for a minimum of 8 hours, the duration of fasting time was recorded, and subjects encouraged to fast appropriately for the next clinical visit.
Exploratory analysis: The exploratory analysis included analysis of lipid and metabolic parameters including total cholesterol, triglycerides, very low-density lipoprotein cholesterol (VLDL-C), low density lipoprotein cholesterol (LDL-C), high density lipoprotein cholesterol (HDL-C), non-high-density lipoprotein cholesterol (non-HDL-C), remnant-like particle cholesterol (RLP-C), fasting glucose, insulin, free fatty acids and hemoglobin A1C (HbA1C). Additional exploratory analysis included high throughput lipidomics and proteomics.

[5] = system: NAFLD patients; assay: Phase IIa study in NAFLD patients: hepatic fat by CAP; assay type: in vivo, human; conditions: 16 weeks
Method: as §1
Liver stiffness and CAP: Liver stiffness and CAP were assessed using transient elastography (e.g., FibroScan® 502 Touch model or equivalent). Patients were fasted and scanned at the same time of the day, if possible, for baseline (Week 0) and Visit 10 (Week 16). For this assessment the following conditions were met: patients were lying in dorsal decubitus position with the right arm in maximal abduction behind the head, in a similar position to that used for liver biopsy (LB); the tip of the transducer was placed on the skin between the ribs over the right lobe of the liver (the physician took the measurements with the probe placed in the intercostal space); during the FibroScan® examination the choice of M+ or XL+ probe was determined by the Automatic Probe Selection tool (APS) (If, the APS tool advises to use the “XL+probe” or “switch” continuously between “M+ and XL+ probe”, only the XL+ probe was used); and the operator, assisted by an ultrasonic time motion image, located a portion of the liver which is free of large vascular structures (the depth of measurement was between 35-75 mm for the XL+ probe and 25-65 mm for the M+ probe and the explored volume will be 3 cm^3). […] The final stiffness and CAP values was recorded as median values of valid measurements.

[6] = 1 g or 2 g per day, baseline to Week 16 vs placebo

Q: 15-HEPE [DS102] was tested. Which Sirius red-positive area ([1]; 50 mg/kg PO QD Day 0-13) did it give?
A: Its Sirius red-positive area is 1.70 ± 0.63%.

Q: And the Sirius red-positive area ([1]; 250 mg/kg PO QD Day 0-13)?
A: The Sirius red-positive area was 1.06 ± 0.48%.

Q: What about the Sirius red-positive area ([1]; 500 mg/kg PO QD Day 0-13) of the same substance?
A: The Sirius red-positive area was 1.42 ± 0.60%.

Q: What about the “fibrosis area compared with the Vehicle group” value ([1]; 50 mg/kg PO QD Day 0-13) of the same substance?
A: Its value is “no significant difference”.

Q: And the “fibrosis area compared with the Vehicle group” value ([1]; 250 mg/kg PO QD Day 0-13)?
A: The value was “significant decrease”.

Q: And the “fibrosis area compared with the Vehicle group” value ([1]; 500 mg/kg PO QD Day 0-13, 500 mg/kg)?
A: Its value is “tended to decrease; also recorded: trend approaching significance”.

Q: And the “TR (protein level)” value ([2]; 1 g)?
A: The value was “significant reductions”.

Q: And the “proteins that passed the 1st threshold based on the Benjamini-Hochberg testing” value ([2]; 1 g group, Placebo group 0 proteins)?
A: Its value is 1.

Q: And the “NASH drug development targets (CCR215 signaling, Galectin3, AOC3)” value ([2]; 2 g)?
A: The value was “decreased”.

Q: What about the “inflammatory and pro-fibrotic proteins (protein expression)” value ([2]; 2 g, Table 21: PAI-1, TIMP-1, DPP4, TLT2, CCL16, MCP-1, SAA4, PI3, TR, LILRB1, TNRSF11A, Table 22: TL12, AOC3, PRSS2) of the same substance?
A: The value was “decreased”.

Q: And the “number of markers (inflammation, fibrosis, lipid metabolism, apoptosis, chemotaxis) with significantly downregulated expression” value ([2]; 2 g, panel of greater than 350 protein biomarkers)?
A: The value was “over 150”.

Q: What about the “expression of multiple circulating chemokines” value ([2]; NAFLD patients, vs placebo) of the same substance?
A: Its value is “decreased”.

Q: What about the “expression of multiple proteins associated with increased cardiovascular risk” value ([2]; NAFLD patients, vs placebo) of the same substance?
A: The value was “decreased”.

Q: And the “expression of multiple tumor necrosis factor receptor superfamily members” value ([2]; NAFLD patients, vs placebo)?
A: Its value is “decreased”.

Q: And the “expression of multiple vascular adhesion molecules” value ([2]; NAFLD patients, vs placebo)?
A: Its value is “decreased”.

Q: And the “alkaline phosphate (ALP)” value [3]?
A: The value was “reduced”.

Q: What about the “multiple markers for liver fibrosis” value [3] of the same substance?
A: Its value is “reduced”.

Q: And the “insulin sensitivity and glycemic control” value ([4]; 1 g or 2 g per day, 16 weeks)?
A: The value was “improvement”.

Q: What about the “markers of metabolic overload” value ([4]; 1 g or 2 g per day, 16 weeks) of the same substance?
A: Its value is “statistically significant reduction”.

Q: And the “insulin resistance indices (HOMA-IR and adipo-IR levels)” value ([4]; 1 g or 2 g per day, Week 16)?
A: Its value is “improvement”.

Q: And the “HbA1c levels / glycemic control” value [4, 6]?
A: The value was “clinically significant improvements”.

Q: What about the “insulin, glucose, and free fatty acid levels” value [4, 6] of the same substance?
A: The value was “reduction”.

Q: And the “insulin resistance indices (HOMA-IR and adipo-IR levels)” value ([4]; 2 g per day, Week 16, Per Protocol Set)?
A: Its value is “significant improvements”.

Q: What about the “hepatic fat content as assessed by CAP” value [5] of the same substance?
A: Its value is “reduced”.
